Source: patent publication US5556942A, “Glutathione S-transferase-activated compounds” (priority 1994, dated 1996)

How the values were obtained:
[1] = biological target: T1, recombinant human GST M1a-1a (Homo sapiens, UniProt P09488); experiment: Decomposition of compound by GST M1a-1a followed by HPLC; assay type: biochemical; settings: for IN VITRO HALF LIVES, M1a-1a: 3 μM recombinant human GST M1a-1a, compound 300 μM, disappearance by HPLC; for decomposition rate versus background, M1a: 37°
T1 sequence (P09488 2-218 limits assumed): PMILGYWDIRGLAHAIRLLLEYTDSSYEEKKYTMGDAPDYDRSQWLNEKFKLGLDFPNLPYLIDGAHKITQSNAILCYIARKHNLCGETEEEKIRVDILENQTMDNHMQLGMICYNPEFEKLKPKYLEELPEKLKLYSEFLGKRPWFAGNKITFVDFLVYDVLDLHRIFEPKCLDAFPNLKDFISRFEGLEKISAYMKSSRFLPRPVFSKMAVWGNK
Method: (§1) The compound to be tested was dissolved in 0.2M phosphate buffer and a solution of GST was added. The final concentration was 0.3 mM test compound and 0.006 mM GST, pH 7.3 for TER 230; for TER 231 GST was 0,003 mM, pH 7.1. The solution was incubated at 37°. Decomposition was followed by HPLC. The column was J. T. Baker C18 250×4.6 mm with 5μ particles. The A buffer was 0.05M ammonium acetate, pH 5.5; 5% CH3 CN; B buffer was 70% CH3 CN in A.
(§2) The column was run with a gradient of 20%-50% B over 15 min. then to 100% B in 3 mins; then back to 20% B over 6 mins. A 10 μL sample was injected and the flow rate was 1 ml/min. Aliquots were removed and catalytic decomposition was quenched by addition of acetic acid. Overnight HPLC utilizing an autosampler were used; the rates of decomposition were calculated by measuring the rate of disappearance of the peak versus an internal standard which was 0.06 mM of an inert peptide marker.
(§3) In addition, half-lives were determined as described above using 3 μM recombinant human GST P1-1, A1-1 or M1a-1a starting with a concentration of the compound to be tested at 300 μM and monitoring disappearance using HPLC.

[2] = biological target: T2, recombinant human GST A1-1 (Homo sapiens, UniProt P08263); experiment: Decomposition of compound by GST A1-1 followed by HPLC; assay type: biochemical; settings: for IN VITRO HALF LIVES, A1-1: 3 μM recombinant human GST A1-1, compound 300 μM, disappearance by HPLC; for decomposition rate versus background, A1: 37°
T2 sequence (P08263 1-222): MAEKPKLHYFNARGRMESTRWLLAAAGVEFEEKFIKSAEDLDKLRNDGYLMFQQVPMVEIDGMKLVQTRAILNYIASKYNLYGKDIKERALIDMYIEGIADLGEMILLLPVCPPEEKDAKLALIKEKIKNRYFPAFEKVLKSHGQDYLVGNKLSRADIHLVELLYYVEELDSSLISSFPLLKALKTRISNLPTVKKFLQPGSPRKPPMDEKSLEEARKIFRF
Method: as §1, §2, §3

[3] = system: human GST P1-1, A1-1, M1a-1a; settings: from in vitro half lives with 3 μM GST, 300 μM compound
Method: as §3

[4] = biological target: recombinant human GST P1-1 (Homo sapiens, UniProt P09211); experiment: Decomposition of compound by GST P1-1 followed by HPLC; assay type: biochemical; settings: for IN VITRO HALF LIVES, P1-1: 3 μM recombinant human GST P1-1, compound 300 μM, disappearance by HPLC; for decomposition rate versus background, P1: 37°
Method: as §1, §2, §3

[5] = system: GM-CFU in femoral bone marrow
Method: In the assay, B6D2F1 mice were treated with various doses of TER 286 intraperitoneally either as a single injection or as five daily injections. Femoral bone marrows were harvested 24 hours later and assayed for GM-CFU by the method of East, C. J. et al. Cancer Chemother Pharmacol (1992) 31:123-126.

HT29 human cancer cells = settings: preliminary results
[6] = no GST; compound 300 μM; disappearance by HPLC
Method: as §1, §2, §3

[7] = system: MCF-7 cells transfected with GST P1-1; settings: for sensitization of cells with high P1-1 levels compared to control-vector cells: 2 hours treatment, assayed on day 5, FIGS. 4a-4c
[8] = system: MCF-7 cells selected for cyclophosphamide resistance (MCF-CTX); settings: standard clonogenic assay
Excerpt: Also tested were MCF-7 cells selected for cyclophosphamide resistance (MCF-CTX) and its wild-type counterpart.

MX-1 tumor = settings: single intraperitoneal injection, 300 mg/kg or 400 mg/kg, monitored one month; FIG. 5
Method: The prodrugs of the invention were tested in Balb/C nu/nv mice. The mice were implanted subcutaneously with MX-1 tumor pieces and then treated with a single intraperitoneal injection once tumors reached an average of 100 mm^3 (which is at approximately day 18 post-implant). Tumor growth and body weight were monitored for one month following treatment. […] In FIG. 5, the squares represent controls; circles represent 300 mg/kg of TER 286; triangles represent 400 mg/kg of the same drug. The points shown are the mean ±SEM of 5-7 mice per group.

[9] = 0.3 mM TER 231, GST 0,003 mM, pH 7.1, 0.2M phosphate buffer, FIG. 2
[10] = 0.3 mM TER 230, 0.006 mM GST, pH 7.3, 0.2M phosphate buffer, FIG. 1
[11] = TER 286 similarly tested, FIG. 3

Sequence of recombinant human GST P1-1 (P09211 2-210 limits assumed): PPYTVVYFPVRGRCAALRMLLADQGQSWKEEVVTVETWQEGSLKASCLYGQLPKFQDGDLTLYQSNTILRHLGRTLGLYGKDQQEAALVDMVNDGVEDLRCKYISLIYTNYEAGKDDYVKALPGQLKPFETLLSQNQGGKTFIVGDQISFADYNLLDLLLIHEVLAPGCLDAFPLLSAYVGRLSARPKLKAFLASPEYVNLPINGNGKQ

| Molecule | IN VITRO HALF LIVES, M1a-1a [1] | IN VITRO HALF LIVES, A1-1 [2] | Selectivity (GST isoenzyme that selectively cleaves the prodrug) [3] | IN VITRO HALF LIVES, P1-1 [4] | toxicity to HT29 cells (HT29 human cancer cells) | IN VITRO HALF LIVES, CONTROL [6] | sensitization of cells with high P1-1 levels compared to control-vector cells [7] | other results |
| --- | --- | --- | --- | --- | --- | --- | --- | --- |
| γ-glutamyl-α-Amino-β-((2-ethyl-N,N,N,N-tetra(2'-chloro)eth ylphosphoroamidate)sulfonyl)propionylphenylalanine [TER 303] | 200 min | 45 min | selectively cleaved by A1-1 | 310 min | – | – | – | – |
| N[C@@H](Cc1ccc(N(CCCl)CCCl)cc1)C(=O)O [melphalan, reference compound] | – | – | – | – | – | – | – | toxicity with respect to bone marrow (GM-CFU) ([5]; FIG. 7): extreme toxicity |
| NC(CCC(=O)NC(CS(=O)(=O)CCOP(=O)(N(CCCl)CCCl)N(CCCl)CCCl)C(=O)NCC(=O)O)C(=O)O (stereo not drawn) [TER 231, γ-Glutamyl-α-Aminopropionyl (β-(2-ethyl-N,N,N,N-tetra(2'-chloro)ethylphosphoroamidate)sulfonyl)gl ycine] | 25 min | 110 min | by M1a-1a | 110 min | toxic to these cells | 350 min | 2 fold | decomposition rate versus background, M1a [1, 9]: about 12 times faster than background; decomposition rate versus background, A1 [2, 9]: 5 times faster than background; decomposition rate versus background, P1 [4, 9]: 5 times faster than background; sensitivity of π-transfected MCF-7 cells versus untransfected cells ([7]; π-transfect with elevated P1 GST): more sensitive |
| γ-glutamyl-α-Amino-β-(1-phenyl, (2'ethyl-N,N,N,N-tetra(2'-chloro)ethylphosphoroamidate)sulfonyl) propionyl glycine [TER 296] | 50 min | 200 min | selectively cleaved by P1-1 | 2.5 min | – | – | – | – |
| CCN(CC)P(=O)(OCCS(=O)(=O)CC(NC(=O)CCC(N)C(=O)O)C(=O)NCC(=O)O)N(CC)CC (stereo not drawn) [TER 230, γ-glutamyl-α-aminopropionyl (β-(2-ethyl-N,N,N,N,tetraethylphosphoramidate)sulfonyl)-glycine] | – | – | – | – | is not | – | – | decomposition rate versus background, M1a [1, 10]: about 4 times faster than background; decomposition rate versus background, A1 [2, 10]: does not accelerate the decomposition of TER 230 above background; decomposition rate versus background, P1 [4, 10]: about 2 times faster than background |
| NC(CCC(=O)NC(CS(=O)(=O)CCOP(=O)(N(CCCl)CCCl)N(CCCl)CCCl)C(=O)N[C@@H](C(=O)O)c1ccccc1)C(=O)O (stereo partly drawn) [TER 286, γ-glutamyl-α-Amino-β-((2-ethyl-N,N,N,N-tetra(2'-chloro) ethylphosphoroamidate)sulfonyl)propionyl-(R)-(-)phenylglycine] | 225 min | 65 min | selectively cleaved by P1-1 and A1-1 | 50 min | – | 275 min | 4 fold | acceleration of cleavage versus background, M1a-1a [1, 11]: negligible acceleration of cleavage; GM-CFU, % of controls ([5]; mouse, in vivo): up to 180%; optimum dosage range for bone marrow GM-CFU ([5]; mouse, in vivo): 100 to 200 mg/kg; acceleration of cleavage versus background, A1-1 [2, 11]: roughly six; factor by which CTX-resistant cells are more sensitive than CTX-sensitive cells [8]: 1.8; acceleration of cleavage versus background, P1-1 [4, 11]: roughly six; tumor volume in treated mice compared to controls (MX-1 tumor): greatly diminished |
